The results in this text go back to patent US20230080054A1 (ILDONG PHARMACEUTICAL CO., LTD., priority 2021, published 2023).

This assay addresses T1, human ANO6 (Homo sapiens, UniProt Q4KMQ2).
T1 construct: expressed in transfected cells
T1 sequence (Q4KMQ2 1-931 isoform Q4KMQ2-2): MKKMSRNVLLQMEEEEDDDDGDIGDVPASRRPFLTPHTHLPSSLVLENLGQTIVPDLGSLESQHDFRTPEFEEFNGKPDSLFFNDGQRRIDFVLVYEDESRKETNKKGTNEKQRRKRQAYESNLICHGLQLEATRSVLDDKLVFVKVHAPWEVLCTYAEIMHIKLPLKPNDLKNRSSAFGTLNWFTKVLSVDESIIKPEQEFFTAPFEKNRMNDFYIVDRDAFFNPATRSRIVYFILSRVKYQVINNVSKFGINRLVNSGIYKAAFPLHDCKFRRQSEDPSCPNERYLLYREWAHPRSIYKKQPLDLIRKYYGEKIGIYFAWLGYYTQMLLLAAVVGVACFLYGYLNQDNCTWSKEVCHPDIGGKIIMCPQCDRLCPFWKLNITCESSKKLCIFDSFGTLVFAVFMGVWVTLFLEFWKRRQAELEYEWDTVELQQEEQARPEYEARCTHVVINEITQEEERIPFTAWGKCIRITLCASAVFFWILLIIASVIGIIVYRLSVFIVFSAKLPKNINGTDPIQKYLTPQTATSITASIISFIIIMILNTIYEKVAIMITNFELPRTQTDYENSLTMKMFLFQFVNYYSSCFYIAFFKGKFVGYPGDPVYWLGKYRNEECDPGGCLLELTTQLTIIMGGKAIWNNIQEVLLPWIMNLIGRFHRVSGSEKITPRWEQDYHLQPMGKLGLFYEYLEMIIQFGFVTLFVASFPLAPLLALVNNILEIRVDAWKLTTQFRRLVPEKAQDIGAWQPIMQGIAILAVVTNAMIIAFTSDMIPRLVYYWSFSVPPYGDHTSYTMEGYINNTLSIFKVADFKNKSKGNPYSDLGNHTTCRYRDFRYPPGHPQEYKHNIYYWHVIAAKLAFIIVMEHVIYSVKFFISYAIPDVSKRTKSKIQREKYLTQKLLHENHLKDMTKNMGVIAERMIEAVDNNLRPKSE
Put plainly: LACT C2 assay (phosphatidylserine scramblase function assay). Type of assay: cell-based. Particulars: FRT cells expressing human ANO6, 10 μM ionomycin; for inhibition at 0.1 µM: test compound 100 nM, read-out: Inhibition Level 100 nM; for inhibition at 1 µM: test compound 1 μM, read-out: Inhibition Level 1 μM. The source says: Phosphatidylserine Scramblase Function Assay
1. Materials and Instruments
Ionomycin (Alomonelab, cat. #I-700), DAPI (Sigma-Aldrich, cat. #D8417), paraformaldehyde (Biosesang, cat. #P2031), Lionheart FX Automated Microscope (BioTek, Winooski), Python3 (Python Software Foundation), and OpenCV (Open Source Computer Vision Library).
Fisher rat thyroid (FRT) cells stably expressing human ANO6 (GenBank accession no. NP_001191732.1, provided by J. H. Nam, Dongguk University College of Medicine, Korea) were grown in DMEM/Ham's F-12 (1:1) medium with 10% FBS, 2 mM L-549 glutamine, 100 units/mL penicillin, and 100 μg/mL streptomycin at 37° C. and 5% CO2.
FRT cells stably expressing human ANO6 were plated in 96 well black-walled microplates at a density of 2×10^4 cells/well. After 24 hours incubation, cells were treated with the test compound (dissolved in DMSO) were treated to each well to become 1% v/v DMSO for 10 minutes, then 10 μM of ionomycin was applied. Finally each well was washed with 200 μL PBS after 10 minutes. After washout, the phosphatidylserine and nuclei were stained with PBS containing 500 nM Lactadherin-C2 (Lact-C2)-GFP, then cells were washed with 200 μL PBS. Cells were fixed with 4% paraformaldehyde for 5 minutes at room temperature. For morphological analysis, some cells were stained with fluorescently labelled DAPI for 15 minutes at room temperature. Quantitative analysis of the fluorescence intensity of Lact-C2-GFP was performed with Python3 and OpenCV. OpenCV was used to remove background and noise pixels, and the sum of all remaining pixel values was used to evaluate the fluorescence intensity of Lact-C2-GFP.
The inhibitory activity (%) of each of the test compounds was obtained by the following steps. In each row of 96 well plate, the inhibitory activity of each of the test compounds was calculated as percentages. The inhibitory activity of a negative control group to which neither compounds nor ionomycin were treated was set to be 100%, and the inhibitory activity of a positive control group to which ionomycin was treated and compounds were not treated was set to be 0%. The assay was performed in triplicate, and the results were averaged.

On to `O=C(NCc1ccc(Br)cc1)c1cccc(Nc2ncc(-c3cccc(F)c3)cn2)c1` [Compound A100], for which the inhibition (usually the share of the control response that was lost under treatment) at 0.1 µM is below 30% and the inhibition at 1 µM was in the range of 30 to 60%.

As to `COc1cc(F)ccc1CNC(=O)c1cccc(Nc2ccc(-c3ccccc3)nn2)c1` [Compound 214, N-(4-fluoro-2-methoxybenzyl)-3-((6-phenylpyridazin-3-yl)amino)benzamide], the inhibition at 0.1 µM is below 30% and the inhibition at 1 µM lay within 30 to 60%.

With `CN1CCN(c2cc(F)ccc2CNC(=O)c2cccc(Nc3ccc(-c4ccccc4)nn3)c2)CC1` [Compound 222, N-(4-fluoro-2-(4-methylpiperazin-1-yl)benzyl)-3-((6-phenylpyridazin-3-yl)amino)benzamide], the inhibition at 0.1 µM was below 30% and the inhibition at 1 µM lay in the range of 30 to 60%.

`Cc1cc(CNC(=O)c2cccc(Nc3ccc(-c4ccccc4)nn3)c2)ccc1F` [Compound 231, N-(4-fluoro-3-methylbenzyl)-3-((6-phenylpyridazin-3-yl)amino)benzamide]: the inhibition at 0.1 µM is below 30% and the inhibition at 1 µM is below 30%.

For `O=C(NCc1ccc(C(F)(F)F)cc1C(F)(F)F)c1cccc(Nc2ncc(-c3cccc(F)c3)cn2)c1` [Compound 208, N-(2,4-bis(trifluoromethyl)benzyl)-3-((5-(3-fluorophenyl)pyrimidin-2-yl)amino)benzamide], the inhibition at 0.1 µM is below 30% and the inhibition at 1 µM is 30 to 60%.

As to `O=C(NCc1ccc(F)cc1Br)c1cccc(Nc2ccc(-c3ccccc3)nn2)c1` [Compound 200, N-(2-bromo-4-fluorobenzyl)-3-((6-phenylpyridazin-3-yl)amino)benzamide], the inhibition at 0.1 µM was below 30% and the inhibition at 1 µM is at least 60%.

As for `O=C(NC1(CO)CC1)c1cccc(Nc2ccc(-c3ccccc3)nn2)c1` [Compound 228, N-(1-(hydroxymethyl)cyclopropyl)-3-((6-phenylpyridazin-3-yl)amino)benzamide], the inhibition at 0.1 µM was below 30% and the inhibition at 1 µM was below 30%.

As to `Cc1ccc([C@@H]2C[C@H]2NC(=O)c2cccc(Nc3ccc(-c4ccccc4)nn3)c2)cc1` [Compound 235, 3-((6-phenylpyridazin-3-yl)amino)-N-((1R,2S)-2-(p-tolyl)cyclopropyl)benzamide], the inhibition at 0.1 µM lay in the range of 30 to 60% and the inhibition at 1 µM was at least 60%.

As to `CN1CCC(CNC(=O)c2cccc(Nc3ccc(-c4cccc(F)c4)cn3)c2)CC1` [Compound 140, 3-((5-(3-fluorophenyl)pyridin-2-yl)amino)-N-((1-methylpiperidin-4-yl)methyl)benzamide], the inhibition at 0.1 µM was below 30% and the inhibition at 1 µM was below 30%.

Take `Cc1ccccc1CNC(=O)c1cccc(Nc2ncc(-c3cccc(F)c3)cn2)c1` [Compound A99]: the inhibition at 0.1 µM was below 30% and the inhibition at 1 µM is below 30%.

On to `O=C(N[C@@H]1C[C@H]1c1ccccc1)c1cccc(Nc2ncc(-c3ccoc3)cn2)c1` [Compound 157, 3-((5-(furan-3-yl)pyrimidin-2-yl)amino)-N-((1R,2S)-2-phenylcyclopropyl)benzamide], for which the inhibition at 0.1 µM lay within 30 to 60% and the inhibition at 1 µM was at least 60%.

For `COC(=O)c1ccc(CCNC(=O)c2cccc(Nc3ncc(-c4cccc(F)c4)cn3)c2)cc1` [Compound 126, methyl 4-(2-(3-((5-(3-fluorophenyl)pyrimidin-2-yl)amino)benzamido)ethyl)benzoate], the inhibition at 1 µM is below 30%.

For the molecule `CN(c1cccc(C(=O)N[C@@H]2C[C@H]2c2ccccc2)c1)c1ncc(-c2cccc(F)c2)cn1` [Compound 180, 3-((5-(3-fluorophenyl)pyrimidin-2-yl)(methyl)amino)-N-((1R,2S)-2-phenylcyclopropyl)benzamide], the inhibition at 0.1 µM is below 30%.

On to `Nc1cccc(CCNC(=O)c2cccc(Nc3ncc(-c4cccc(F)c4)cn3)c2)c1` [Compound 147, N-(3-aminophenethyl)-3-((5-(3-fluorophenyl)pyrimidin-2-yl)amino)benzamide], for which the inhibition at 0.1 µM is below 30% and the inhibition at 1 µM is below 30%.

As for `N#CC1(NC(=O)c2cccc(Nc3ncc(-c4cccc(F)c4)cn3)c2)CC1` [Compound 218, N-(1-cyanocyclopropyl)-3-((5-(3-fluorophenyl)pyrimidin-2-yl)amino)benzamide], the inhibition at 0.1 µM was below 30% and the inhibition at 1 µM fell in the range of 30 to 60%.

Regarding `O=C(NC1(CO)CC1)c1cccc(Nc2ccc(-c3cccc(F)c3)nn2)c1` [Compound 224, 3-((6-(3-fluorophenyl)pyridazin-3-yl)amino)-N-(1-(hydroxymethyl)cyclopropyl)benzamide], the inhibition at 0.1 µM is below 30% and the inhibition at 1 µM was below 30%.

Take `O=C(Nc1ccc2c(c1)CNC2)c1cccc(Nc2ncc(-c3cccc(F)c3)cn2)c1` [Compound 192, 3-((5-(3-fluorophenyl)pyrimidin-2-yl)amino)-N-(isoindolin-5-yl)benzamide]: the inhibition at 0.1 µM is below 30%.

As to `Cc1ccc(CNC(=O)c2cccc(Nc3ncc(-c4cccc(F)c4)cn3)c2)c(C)c1` [Compound 206, N-(2,4-dimethylbenzyl)-3-((5-(3-fluorophenyl)pyrimidin-2-yl)amino)benzamide], the inhibition at 0.1 µM was below 30% and the inhibition at 1 µM lay in the range of 30 to 60%.

`CN1CCN(c2cc(CNC(=O)c3cccc(Nc4ccc(-c5ccccc5)nn4)c3)ccc2F)CC1` [Compound 227, N-(4-fluoro-3-(4-methylpiperazin-1-yl)benzyl)-3-((6-phenylpyridazin-3-yl)amino)benzamide]: the inhibition at 0.1 µM is below 30% and the inhibition at 1 µM is 30 to 60%.

As to `CCN1CCN(c2cc(CNC(=O)c3cccc(Nc4ccc(-c5ccccc5)nn4)c3)ccc2F)CC1` [Compound 226, N-(3-(4-ethylpiperazin-1-yl)-4-fluorobenzyl)-3-((6-phenylpyridazin-3-yl)amino)benzamide], the inhibition at 0.1 µM is below 30% and the inhibition at 1 µM is below 30%.

For `CC(NC(=O)c1cccc(Nc2ccc(-c3ccccc3)nn2)c1)c1ccc(F)cc1` (centres unmarked) [Compound 233, N-(1-(4-fluorophenyl)ethyl)-3-((6-phenylpyridazin-3-yl)amino)benzamide], the inhibition at 0.1 µM was below 30% and the inhibition at 1 µM was below 30%.

For `O=C(NC1(c2ccc(F)cc2)CC1)c1cccc(Nc2ccc(-c3ccccc3)nn2)c1` [Compound 196, N-(1-(4-fluorophenyl)cyclopropyl)-3-((6-phenylpyridazin-3-yl)amino)benzamide], the inhibition at 0.1 µM is below 30% and the inhibition at 1 µM was in the range of 30 to 60%.

Turning to `O=C(Nc1cccc(F)c1)C1CCCC(Nc2ccc(-c3ccccc3)nn2)C1` (centres unmarked) [Compound 191, N-(3-fluorophenyl)-3-((6-phenylpyridazin-3-yl)amino)cyclohexane-1-carboxamide], the inhibition at 0.1 µM is below 30%.

`CN1CCC(CCNC(=O)c2cccc(Nc3ccc(-c4cccc(F)c4)cn3)c2)CC1` [Compound 139, 3-((5-(3-fluorophenyl)pyridin-2-yl)amino)-N-(2-(1-methylpiperidin-4-yl)ethyl)benzamide]: the inhibition at 0.1 µM was below 30% and the inhibition at 1 µM was below 30%.
